In patent US20210070747A1, “2(1H)-QUINOLINONE DERIVATIVE” (priority 2017, published 2021):
Values after ≈ are worked out from the molar mass of the structure shown. Read-outs that look alike come from different tables or passages of the source.

Tests used:
[1] = test system: E. Coli ATCC 25922; assay: Test for evaluating antibacterial activity (E. coli), broth microdilution MIC; format: cell-based; settings: Escherichia coli, ATCC25922; 35° C., 18 hours, cation-adjusted Mueller-Hinton medium
Method: Minimum inhibitory concentration (MIC) was measured using the broth microdilution method described below in accordance with a modification of the standard method specified by CLSI (Clinical & Laboratory Standards Institute).
(§1) Bacterial cells under test were cultured overnight on a heart infusion agar medium, scraped off and suspended at a concentration equivalent to McFarland 0.5 turbidity; the suspension thus obtained was diluted 10 folds to give a liquid inoculum. The inoculum (0.005 mL) was inoculated on a cation-adjusted Mueller-Hinton medium containing the analyte compound and cultured at 35° C. for 18 hours. A minimum drug concentration at which no bacterial growth was macroscopically visible was designated MIC.

[2] = test system: N. gonorrhoeae ATCC 49226; assay: Test for evaluating antibacterial activity (N. gonorrhoeae), broth microdilution MIC; format: cell-based; settings: Neisseria gonorrhoeae, ATCC49226; 35° C., 24 hours, gonococcal broth
Method: Minimum inhibitory concentration (MIC) was measured using the broth microdilution method described below in accordance with a modification of the method of Geers et al. (Antimicrob. Agents. Chemother. (1989), 33, 233-234).
After sterilization, BD. Difco supplement C was added to give a final concentration of 1%, whereby a gonococcal broth was prepared.
as §1, with “chocolate II” for “heart infusion”, “5” for “10”, “gonococcal broth” for “cation-adjusted Mueller-Hinton medium”, “24” for “18”

[3] = molecular target: T1, E. coli DNA gyrase (Escherichia coli, UniProt P0AES6); assay: Test for evaluating the activity of inhibiting E. coli DNA gyrase enzyme (Method 2, supercoiling, recombinant gyrA/gyrB complex); format: biochemical
T1 construct: made in house; host or cells: E. coli BL21 (DE3)
Method: The enzymatic activity of E. coli DNA gyrase was measured by a method comprising reacting DNA gyrase and its substrate, relaxed pBR322 (Inspiralis), in the presence of ATP and detecting the post-reaction supercoiled pBR322/relaxed pBR322 ratio with H19.
Specifically, to 1 ng/μL of relaxed pBR322, E. coli DNA gyrase enzyme (the gyrA or gyrB gene was incorporated into the pET15b plasmid and after expressing them in E. coli BL21 (DE3), purification was performed using a Ni-NTA column to form a complex at room temperature) was added at a final concentration of 0.135 nmol/mL and the mixture was incubated for 60 minutes at room temperature. This reaction was carried out in 20 mmol/L tris-HCl buffered solution (pH 8.0) comprising 0.5 mmol/L ATP, 0.005% bridge 35, 35 mmol/L ammonium acetate, 8 mmol/L magnesium chloride, 4.6% glycerol, and 1 mmol/L dithiothreitol. To the reaction mixture, H19 was added to bring the reaction to an end; thereafter, the supercoiled pBR322/relaxed pBR322 ratio was detected at excitation wavelength/emission wavelength=485 nm/535 nm. An inhibition curve was obtained by allowing the analyte compound to be present at varying concentrations during the reaction described above.

[4] = Method 2, read-out: E. Coli Gyrase supercoiling IC50

| SMILES | MIC [1] [µg/mL] | MIC [2] [µg/mL] | IC50 [3, 4] [nM] | IC50 [3] [nM] | inhibition at 0.1 µM ([3]; Method 2, at 100 nM) [%] |
| --- | --- | --- | --- | --- | --- |
| CNc1cccc2cc(C(=O)NCCc3nc(O)cc(O)n3)c(=O)[nH]c12 [Example 32, N-[2-(4,6-dihydroxy-pyrimidine-2-yl)ethyl]-8-(methylamino)-2-oxo-1,2-dihydroquinoline-3-carboxamide] | > 64 | > 4 | 25.3 | – | – |
| CNc1cccc2cc(C(=O)Nc3cnc(CO)nc3)c(=O)[nH]c12 [Example 37, N-[2-(hydroxymethyl)pyrimidine-5-yl]-8-(methylamino)-2-oxo-1,2-dihydroquinoline-3-carboxamide] | > 4 | 1 (≈ 3.07 µM) | 9.97 | – | – |
| CNc1cc(F)cc2cc(C(=O)Nc3ccc(C(=O)O)cc3CN(C)C3CCN(C)CC3)c(=O)[nH]c12.Cl [Example 83, 4-{[6-fluoro-8-(methylamino)-2-oxo-1,2-dihydroquinoline-3-carbonyl]amino)-3-{[methyl(1-methylpiperidine-4-yl)amino]methyl} benzoic acid-hydrochloride] | > 16 | > 4 | – | 1.09 | – |
| CNc1cc(F)cc2cc(C(=O)Nc3cnccc3CO)c(=O)[nH]c12 [Example 91, 6-Fluoro-N-[4-(hydroxymethyl)pyridin-3-yl]-8-(methylamino)-2-oxo-1,2-dihydroquinoline-3-carboxamide] | > 16 | 1 (≈ 2.92 µM) | 18.6 | – | – |
| CCc1cc(C(=O)O)ccc1NC(=O)c1cc2cc(F)cc(NC)c2[nH]c1=O [Example 93, 3-ethyl-4-{[6-fluoro-8-(methylamino)-2-oxo-1,2-dihydraquinoline-3-carbonyl]amino} benzoic acid] | > 2 | 0.25 (≈ 0.652 µM) | 31.8 | – | – |
| CNc1cc(F)cc2cc(C(=O)Nc3cnccc3CN(C)C3CCCCC3)c(=O)[nH]c12 [Example 95, N-(4-{[cyclohexyl(methyl)amino]methyl}pyridine-3-yl)-6-fluoro-8-(methylamino)-2-oxo-1,2-dihydroquinoline-3-carboxamide] | > 16 | 1 (≈ 2.29 µM) | – | 2.16 | – |
| CNc1cc(F)cc2cc(C(=O)Nc3c(C)cc(C(=O)O)cc3CN(C)C3CCCCC3)c(=O)[nH]c12 [Example 99, 3-{[cyclohexyl (methyl)amino]methyl}-4-{[6-fluoro-8-(methylamino)-2-oxo-1,2-dihydroquinoline-3-carbonyl]amino}-5-methylbenzoic acid] | 64 (≈ 129 µM) | 0.25 (≈ 0.505 µM) | 0.7 | – | – |
| CNc1cc(F)cc2nc(C(=O)Nc3ccc(C(=O)O)cc3CN(C)C3CCCCC3)c(=O)[nH]c12 [Example 100, 3-[[Cyclohexyl(methyl)amino]methyl]-4-[[7-fluoro-5-(methylamino)-3-oxo-3,4-dihydroquinoxaline-2-carbonyl]amino]benzoic Acid] | > 64 | > 1 | 33.7 | – | – |
| CNc1cc(F)cc2cc(C(=O)Nc3ccccc3CN(CC(=O)O)C3CCCCC3)c(=O)[nH]c12 [Example 103, N-cyclohexyl-N-[(2-{[6-fluoro-8-(methylamino)-2-oxo-1,2-dihydroquinoline-3-carbonyl]amino}phenyl)methyl]glycine] | > 64 | 4 (≈ 8.32 µM) | – | 12.1 | – |
| CCCCCCCCN(CCCCCCCC)Cc1cc(C(=O)O)ccc1NC(=O)c1cc2cc(F)cc(NC)c2[nH]c1=O [Example 106, 3-[(dioctylamino)methyl]-4-{[6-fluoro-8-(methylamino)-2-oxo-1,2-dihydroquinoline-3-carbonyl]amino} benzoic acid] | > 8 | 0.5 (≈ 0.821 µM) | 6.98 | – | – |
| CNc1cncc2cc(C(=O)Nc3ccc(C(=O)O)cc3CN(C)C3CCCCC3)c(=O)[nH]c12 [Example 108, 3-[[Cyclohexyl(methyl)amino]methyl]-4-[[8-(methylamino)-2-oxo-1,2-dihydro-1,6-naphthyridine-3-carbonyl]amino]benzoic Acid] | > 32 | > 1 | 6.05 | – | – |
| CNc1cc(F)cc2cc(C(=O)Nc3ccc(C(=O)O)cc3CN(CCN)C3CCCCC3)c(=O)[nH]c12.O=C(O)C(F)(F)F [Example 110, 3-{[(2-aminoethyl)(cyclohexyl)amino]methyl}-4-{[6-fluoro-8-(methylamino)-2-oxo-1,2-dihydroquinoline-3-carbonyl]amino}benzoic acid-trifluoroacetate] | > 64 | > 1 | – | 3.68 | – |
| CNc1cc(F)cc2cc(C(=O)N[C@H]3CC[C@H](C(=O)O)CC3)c(=O)[nH]c12 [Example 116, trans-4-{[6-fluoro-8-(methylamino)-2-oxo-1,2-dihydroquinoline-3-carbonyl]amino} cyclohexane-1-carboxylic acid] | > 64 | > 1 | – | 137 | – |
| CNc1cc(F)cc2c(OC)c(C(=O)Nc3ccc(C(=O)O)cc3)c(=O)[nH]c12 [Example 118, 4-[[6-Fluoro-4-methoxy-8-(methylamino)-2-oxo-1,2-dihydroquinoline-3-carbonyl]amino]benzoic Acid] | > 64 | 1 (≈ 2.6 µM) | – | – | 45 |
| CNc1cc(F)cc2cc(C(=O)Nc3ccc(C(N)=O)cc3CN(C)C3CCCCC3)c(=O)[nH]c12 [Example 121, N-(4-carbamoyl-2-{[cyclohexyl(methyl)amino]methyl}phenyl)-6-fluoro-8-(methylamino)-2-oxo-1,2-dihydroquinoline-3-carboxamide] | > 32 | 0.25 (≈ 0.521 µM) | 2.48 | – | – |
| CNc1cc(F)cc2cc(C(=O)Nc3ccc(CO)cc3CN(C)C3CCCCC3)c(=O)[nH]c12 [Example 122, N-[2-{[cyclohexyl(methyl)amino]methyl}-4-(hydroxymethyl)phenyl]-6-fluoro-8-(methylamino)-2-oxo-1,2-dihydroquinoline-3-carboxamide] | 16 (≈ 34.3 µM) | 0.5 (≈ 1.07 µM) | 1.92 | – | – |
| CNc1cc(F)cc2c(O)c(C(=O)Nc3ccccc3)c(=O)[nH]c12 [Example 129, 6-fluoro-4-hydroxy-8-(methylamino)-2-oxo-N-phenyl-1,2-dihydroquinoline-3-carboxamide] | > 16 | 1 (≈ 3.06 µM) | 387 | – | – |
| CNc1cc(F)cc2c(NCCCN)c(C(=O)Nc3ccc(C(=O)O)cc3)c(=O)[nH]c12.O=CO [Example 132, 4-({4-[(3-aminopropyl)amino]-6-fluoro-8-(methylamino)-2-oxo-1,2-dihydroquinoline-3-carbonyl}amino)benzoic acid-formate] | > 8 | 0.25 | – | 0.52 | – |
| CNc1cc(F)cc2c(NCC3CNC3)c(C(=O)Nc3ccc(C(=O)O)cc3)c(=O)[nH]c12.O=CO [Example 135, 4-{[4-{[(azetidine-3-yl)methyl]amino}-6-fluoro-8-(methylamino)-2-oxo-1,2-dihydroquinoline-3-carbonyl]amino}benzoic acid-formate] | > 16 | 0.12 | – | 0.66 | – |
| CNc1cc(F)cc2c(O)c(C(=O)Nc3cncnc3)c(=O)[nH]c12 [Example 138, 6-fluoro-4-hydroxy-8-(methylamino)-2-oxo-N-(pyrimidine-5-yl)-1,2-dihydroquinoline-3-carboxamide] | 32 (≈ 97.2 µM) | 0.06 (≈ 0.182 µM) | 129 | – | – |
| CNc1cc(F)cc2cc(C(=O)Nc3ccc(-c4noc(=O)[nH]4)cc3)c(=O)[nH]c12 [Example 144, 6-fluoro-8-(methylamino)-2-oxo-N-[4-(5-oxo-4,5-dihydro-1,2,4-oxadiazole-3-yl)phenyl]-1,2-dihydroquinoline-3-carboxamide] | > 8 | 0.004 (≈ 0.0101 µM) | 0.48 | – | – |
| CNc1cc(F)cc2cc(C(=O)Nc3ccc(C(=O)NS(C)(=O)=O)cc3)c(=O)[nH]c12 [Example 145, 6-fluoro-N-{4-[(methanesulfonyl)carbamoyl]phenyl}-8-(methylamino)-2-oxo-1,2-dihydroquinoline-3-carboxamide] | > 32 | 0.06 (≈ 0.139 µM) | 0.19 | – | – |
| CNc1cc(F)cc2c(O)c(C(=O)Nc3ccc(C(=O)NS(C)(=O)=O)cc3)c(=O)[nH]c12 [Example 147, 6-Fluoro-4-hydroxy-N-[4-[(methanesulfonyl)carbamoyl]phenyl]-8-(methylamino)-2-oxo-1,2-dihydroquinoline-3-carboxamide] | > 32 | 0.008 (≈ 0.0178 µM) | 1.75 | – | – |
